Test results: US20260207563A1, “UREA COMPOUNDS AS ACTIVATORS OF POTASSIUM CHANNELS KV7.2/7.3 USEFUL IN THE TREATMENT OF CNS AND PNS DISORDERS” (ANGELINI PHARMA S.P.A., priority 2022, published 2026)

How the values were obtained:
Format in all cases: cell-based
[1] = biological target: T1, heteromeric KV7.2/KV7.3 channels (KCNQ2, KCNQ3) (Homo sapiens, UniProt O43525+O43526); assay: Automated patch-clamp (Sophion Qube 384) potency assay against KV7.2/KV7.3 channels; details: CHO-K1/Kv7.2/Kv7.3 cells; for EC50: EC50 from concentration-response of shift in Vhalf, 10 concentrations up to 30 μM, read-out: Kv7.2/7.3 EC50; for Kv7.2/7.3 ΔV1/2: maximal shift in the Vhalf from the top of the curve
T1 construct: expressed in transfected cells; host or cells: CHO-K1
Outline: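 Activator potency: EC50 from 4-parameter logistic fit of mean Vhalf shift across ten 1-in-3 dilutions starting at 30 μM (n=4), with DMSO (typically 0.3%) control. Currents recorded by leak-subtracted whole-cell clamp of stable CHO-K1 KV7.2/KV7.3 cells, held at −80 mV, stepped −100 to +20 mV then 0 mV tails.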

[2] = biological target: T2, homomeric KV7.4 channel (KCNQ4) (Homo sapiens, UniProt P56696); assay: Automated patch-clamp (Qube) counter-screening assay against KV7.4 channel; details: CHO-K1 cells expressing KV7.4; class by maximal shift in the Vhalf at 30 μM
T2 construct: host or cells: CHO-K1
From the text: Assessment of In Vitro Potency Against KV7.4 Channels
A counter-screening assay was also developed on the Qube against the homomeric KV7.4 channel (KCNQ4, Uniprot ID P56696). The cell line used was a stably transfected CHO-K1 with constitutive KV7.4 expression supplied by Charles River Laboratories.
CHO-K1 cells stably expressing KV7.4 channels were maintained in the following culture media: • Hams F-12 with GlutaMAX™ (Life Technologies 31765027), • 10% Fetal clone 2 serum (Perbio Science SH30066.03), and • 250 μg/ml Geneticin™ selective antibiotic (G418, Invitrogen 1013-027).
(§1) Cell maintenance, preparation, recording conditions and voltage protocols were all identical to those above.
(§2) Analysis of Data for Assessment of Potency
(§3) 10 concentrations of test compounds were applied to individual wells in quadruplicate to assess potency as a 1 in 3 dilution series from the maximal concentration of 30 μM. The average shift in the voltage for half activation (Vhalf) for each concentration was used to generate concentration-response curves fitted with a 4-parameter logistic model to estimate the EC50 from the point of inflection of the curve and the maximal shift in the Vhalf from the top of the curve.
(§4) The lower the EC50 value, the higher the potency of the analyzed compound. The selectivity criteria is assigned on the basis of the maximal shift in the Vhalf at 30 μM. […] In Table 3, ND means that selectivity was not determined.

[3] = biological target: T3, heteromeric KV7.3/KV7.5 channel (KCNQ3, KCNQ5) (Homo sapiens, UniProt O43525+Q9NR82); assay: Automated patch-clamp counter-screening against KV7.3/KV7.5 channel; details: HEK293 cells expressing Kv7.3/KV7.5; class by maximal shift in the Vhalf at 30 μM
T3 construct: host or cells: HEK293
Experimental: Assessment of in vitro potency against KV7.3/KV7.5 channels
Counter-screening was also carried out against the heteromeric KV7.3/KV7.5 channel (KCNQ3, Uniprot ID 043525; KCNQ5, Uniprot ID Q9NR82). The cell line used was a stably transfected HEK293 cell line with constitutive Kv7.3 expression and tetracycline inducible KV7.5 expression supplied by Charles River Laboratories.
Cells were maintained in the following culture media: • DMEM/F-12 with GlutaMAX™ (Life Technologies 31331-028), • 10% Tet Systems FCS (Clonetech 631106), • 500 μg/ml Geneticin™ selective antibiotic (G418, Invitrogen 1013-027), • 5 μg/ml Blasticidin S HCl (InvivoGen ant-bl-5), and • 100 μg/ml Zeocin (InvivoGen: ant-zn-5).
as §1, §2, §3, §4

| Compound | EC50 [1] | Kv7.2/7.3 ΔV1/2 [1] | Kv7.4 selectivity criteria [2] | Kv7.3/7.5 selectivity criteria [3] |
| --- | --- | --- | --- | --- |
| O=C(NCCC1(C(F)(F)F)CC1)NCc1ccnc(NCC(F)(F)F)c1 [Compound 16, 1-((2-((2,2,2-Trifluoroethyl)amino)pyridin-4-yl)methyl)-3-(2-(1-(trifluoromethyl)cyclopropyl)ethyl)urea] | 6230 nM | 20.12 mV | A (Selective compounds showed Kv7.4 and/or Kv7.3/7.5 ΔV1/2 equal to or lower than 15 mV (letter A in table 3)) | A (Selective compounds showed Kv7.4 and/or Kv7.3/7.5 ΔV1/2 equal to or lower than 15 mV (letter A in table 3)) |
| O=C(NCCC1(C(F)(F)F)CC1)NCc1ccnc(OCCF)c1 [Compound 17, 1-((2-(2-Fluoroethoxy)pyridin-4-yl)methyl)-3-(2-(1-(trifluoromethyl)cyclopropyl)ethyl)urea] | 5450 nM | 28.27 mV | A (Selective compounds showed Kv7.4 and/or Kv7.3/7.5 ΔV1/2 equal to or lower than 15 mV (letter A in table 3)) | A (Selective compounds showed Kv7.4 and/or Kv7.3/7.5 ΔV1/2 equal to or lower than 15 mV (letter A in table 3)) |
| O=C(NCCC1(C(F)(F)F)CC1)NCc1ccnc(OCC(F)F)c1 [Compound 18, 1-((2-(2,2-Difluoroethoxy)pyridin-4-yl)methyl)-3-(2-(1-(trifluoromethyl)cyclopropyl)ethyl)urea] | 649 nM | 24.69 mV | A (Selective compounds showed Kv7.4 and/or Kv7.3/7.5 ΔV1/2 equal to or lower than 15 mV (letter A in table 3)) | A (Selective compounds showed Kv7.4 and/or Kv7.3/7.5 ΔV1/2 equal to or lower than 15 mV (letter A in table 3)) |
| O=C(NCCC1(C(F)(F)F)CC1)NCc1ccnc(OCc2ccccc2F)c1 [Compound 19, 1-((2-((2-Fluorobenzyl)oxy)pyridin-4-yl)methyl)-3-(2-(1-(trifluoromethyl)cyclopropyl)ethyl)urea] | 263 nM | 23.76 mV | A (Selective compounds showed Kv7.4 and/or Kv7.3/7.5 ΔV1/2 equal to or lower than 15 mV (letter A in table 3)) | A (Selective compounds showed Kv7.4 and/or Kv7.3/7.5 ΔV1/2 equal to or lower than 15 mV (letter A in table 3)) |
| CC(F)(F)COc1cc(CNC(=O)NCCC2(C(F)(F)F)CC2)ccn1 [Compound 20, 1-((2-(2,2-Difluoropropoxy)pyridin-4-yl)methyl)-3-(2-(1-(trifluoromethyl)cyclopropyl)ethyl)urea] | 689 nM | 29.4 mV | A (Selective compounds showed Kv7.4 and/or Kv7.3/7.5 ΔV1/2 equal to or lower than 15 mV (letter A in table 3)) | A (Selective compounds showed Kv7.4 and/or Kv7.3/7.5 ΔV1/2 equal to or lower than 15 mV (letter A in table 3)) |
| O=C(NCCC1(C(F)(F)F)CC1)NC1CCCc2cnc(OCC(F)(F)F)cc21 (centres unmarked) [Compound 21, 1-(3-(2,2,2-Trifluoroethoxy)-5,6,7,8-tetrahydroisoquinolin-5-yl)-3-(2-(1-(trifluoromethyl)cyclopropyl)ethyl)urea] | 1800 nM | 14.76 mV | B (Non-selective compounds showed Kv7.4 and/or Kv7.3/7.5 ΔV1/2 higher than 15 mV (letter B in table 3)) | B (Non-selective compounds showed Kv7.4 and/or Kv7.3/7.5 ΔV1/2 higher than 15 mV (letter B in table 3)) |
| O=C(NCCC1(C(F)(F)F)CC1)NCc1ccnc(OCC2(F)CC2)c1 [Compound 22, 1-((2-((1-Fluorocyclopropyl)methoxy)pyridin-4-yl)methyl)-3-(2-(1-(trifluoromethyl)cyclopropyl)ethyl)urea] | 1940 nM | 27.07 mV | A (Selective compounds showed Kv7.4 and/or Kv7.3/7.5 ΔV1/2 equal to or lower than 15 mV (letter A in table 3)) | A (Selective compounds showed Kv7.4 and/or Kv7.3/7.5 ΔV1/2 equal to or lower than 15 mV (letter A in table 3)) |
| O=C(NCCC1(C(F)(F)F)CC1)NCc1ccnc(OCc2ccccn2)c1 [Compound 23, 1-((2-(Pyridin-2-ylmethoxy)pyridin-4-yl)methyl)-3-(2-(1-(trifluoromethyl)cyclopropyl)ethyl)urea] | 4750 nM | 18.69 mV | A (Selective compounds showed Kv7.4 and/or Kv7.3/7.5 ΔV1/2 equal to or lower than 15 mV (letter A in table 3)) | A (Selective compounds showed Kv7.4 and/or Kv7.3/7.5 ΔV1/2 equal to or lower than 15 mV (letter A in table 3)) |
| O=C(NCCC1(C(F)(F)F)CC1)NCc1ccnc(OCC2(F)COC2)c1 [Compound 24, 1-((2-((3-Fluorooxetan-3-yl)methoxy)pyridin-4-yl)methyl)-3-(2-(1-(trifluoromethyl)cyclopropyl)ethyl)urea] | 11000 nM | 17.14 mV | A (Selective compounds showed Kv7.4 and/or Kv7.3/7.5 ΔV1/2 equal to or lower than 15 mV (letter A in table 3)) | A (Selective compounds showed Kv7.4 and/or Kv7.3/7.5 ΔV1/2 equal to or lower than 15 mV (letter A in table 3)) |
| O=C(NCCC1(C(F)(F)F)CC1)NCc1ccnc(OCc2ccc(F)cc2F)c1 [Compound 25, 1-((2-((2,4-Difluorobenzyl)oxy)pyridin-4-yl)methyl)-3-(2-(1-(trifluoromethyl)cyclopropyl)ethyl)urea] | 400 nM | 25.77 mV | A (Selective compounds showed Kv7.4 and/or Kv7.3/7.5 ΔV1/2 equal to or lower than 15 mV (letter A in table 3)) | A (Selective compounds showed Kv7.4 and/or Kv7.3/7.5 ΔV1/2 equal to or lower than 15 mV (letter A in table 3)) |
| O=C(NCCC1(C(F)(F)F)CC1)NCc1cc(OCC(F)(F)F)nc(N2CCOCC2)c1 [Compound 26, 1-((2-Morpholino-6-(2,2,2-trifluoroethoxy)pyridin-4-yl)methyl)-3-(2-(1-(trifluoromethyl)cyclopropyl)ethyl)urea] | 5140 nM | 31.67 mV | B (Non-selective compounds showed Kv7.4 and/or Kv7.3/7.5 ΔV1/2 higher than 15 mV (letter B in table 3)) | A (Selective compounds showed Kv7.4 and/or Kv7.3/7.5 ΔV1/2 equal to or lower than 15 mV (letter A in table 3)) |
| O=C(NCCC1(C(F)(F)F)CC1)NCc1cc(OCc2ccc(F)cc2)nc(N2CCOCC2)c1 [Compound 27, 1-((2-((4-Fluorobenzyl)oxy)-6-morpholinopyridin-4-yl)methyl)-3-(2-(1-(trifluoromethyl)cyclopropyl)ethyl)urea] | 8020 nM | 18.22 mV | B (Non-selective compounds showed Kv7.4 and/or Kv7.3/7.5 ΔV1/2 higher than 15 mV (letter B in table 3)) | B (Non-selective compounds showed Kv7.4 and/or Kv7.3/7.5 ΔV1/2 higher than 15 mV (letter B in table 3)) |
| O=C(NCCC1(C(F)(F)F)CC1)NCc1cccc(OCC(F)(F)F)n1 [Compound 31, 1-((6-(2,2,2-Trifluoroethoxy)pyridin-2-yl)methyl)-3-(2-(1-(trifluoromethyl)cyclopropyl)ethyl)urea] | 3080 nM | 25.36 mV | A (Selective compounds showed Kv7.4 and/or Kv7.3/7.5 ΔV1/2 equal to or lower than 15 mV (letter A in table 3)) | B (Non-selective compounds showed Kv7.4 and/or Kv7.3/7.5 ΔV1/2 higher than 15 mV (letter B in table 3)) |
| O=C(NCc1ccnc(OCC(F)(F)F)c1)NCC1(C(F)(F)F)CC1 [Compound 35, 1-((2-(2,2,2-Trifluoroethoxy)pyridin-4-yl)methyl)-3-((1-(trifluoromethyl)cyclopropyl)methyl)urea] | 649 nM | 38.22 mV | B (Non-selective compounds showed Kv7.4 and/or Kv7.3/7.5 ΔV1/2 higher than 15 mV (letter B in table 3)) | B (Non-selective compounds showed Kv7.4 and/or Kv7.3/7.5 ΔV1/2 higher than 15 mV (letter B in table 3)) |
